One data set is described as follows: clinical. The conditions noted are these: human, in vivo, 200 mg. The source says:
A definitive low-level LC/MS/MS analytical method to determine the concentrations of synthetic progesterone in human plasma is described. Instrumentation used in this example includes an Applied Biosystems Q-Trap 4000 system using Analyst® 1.4.2 software, Shimadzu LC-20AD HPLC pumps and a LEAP HTC PAL Autosampler. As understood by a person skilled in the art, various similar or equivalent pieces of instrumentation can be used to perform this method. It is also recognized that improved instrumentation can be introduced utilizing equivalent or similar principles of analysis to perform this method similarly or better by being faster, more sensitive, more accurate or more robust relative to the instrumentation used herein. Analyze the pregnant female plasma isotopic ratio standard seven consecutive times. Analyze the synthetic isotopic ratio standard at least seven consecutive times. Analyze the plate beginning with the first calibration sample. Using the data from the seven injections of pregnant female plasma calculate the average area for the progesterone transition and for the progesterone isotope transition. Calculate the ratio by dividing the average area of the progesterone peak by the average area of the isotope peak. This is the natural progesterone ratio. Using the data from the seven injections of the Synthetic Standard calculate the average area for the progesterone transition and for the progesterone isotope transition. Calculate the ratio by dividing the average area of the progesterone peak by the average area of the isotope peak. This is the synthetic progesterone ratio. […] In addition, data presented herein are for fasted post-menopausal women. Fasting can affect progesterone uptake. In this example, healthy, fasted, post-menopausal women orally ingest 1×200 mg progesterone. Plasma samples are obtained from 2 h pre-dose to 24 h post-dose. […] Cmax is the maximum observed concentration and Tmax the time at which Cmax took place. Clast is the value of the last measurable concentration, and […].

On the set-up of data set [1]: AUC / Cmax: unit not given beside the values. The conditions noted are these: from package insert, total progesterone, cited from earlier work.
For data set [2] the following is noted: reported; cited from earlier work.

Like-named read-outs stand apart in the source and are kept apart here. Marks after values point to notes of the source that are not given here.

For orientation: Tmax means the time from dosing to the highest level. Regarding `CC(=O)[C@H]1CC[C@H]2[C@@H]3CCC4=CC(=O)CC[C@]4(C)[C@H]3CC[C@]12C` [Endogenous Progesterone], in “clinical” (po), the AUClast was 3.84 ng·h/mL and the Tmax was 2.33^a h.

As a reminder, the AUC is the area under the concentration-time curve, a measure of exposure. By AUC(0-t) is commonly meant the area under the concentration-time curve up to a stated or last time point. As to `CC(=O)[C@H]1CC[C@H]2[C@@H]3CCC4=CC(=O)CC[C@]4(C)[C@H]3CC[C@]12C` [PROMETRIUM, pregn-4-ene-3,20-dione], the AUC is 1.6 ng·h/mL in “clinical” (female), 43.3 + 30.8 in data set [1] (100 mg after 5 daily doses) and 175.7 + 170.3 in data set [1] (300 mg after 5 daily doses). The Cmax in the data set “clinical” (female) is 3.1 ± 2.3; in the data set “clinical” (female, Cmax), 1.05 ng/mL; in the data set “clinical” (female, po, Cmax), 0.62 to 1.6 ng/mL; in data set [1] (100 mg after 5 daily doses) it was 17.3 + 21.9; in data set [1] (200 mg after 5 daily doses), 38.1 + 37.8; in data set [1] (300 mg after 5 daily doses), 60.6 + 72.5. For the same compound, the Tmax in the data set “clinical” (female, po) was 2.63 h; in data set [1] (200 mg after 5 daily doses) it was 2.3 + 1.4; in data set [1] (300 mg after 5 daily doses), 1.7 + 0.6. For the same compound, the AUC(0-t) in “clinical” (female, po, AUC0-4 h) is 1.01 to 2.37 ng·h/mL; in the data set “clinical” (female, po, AUClast), 2.11 ng·h/mL.

`CC(=O)[C@H]1CC[C@H]2[C@@H]3CCC4=CC(=O)CC[C@]4(C)[C@H]3CC[C@]12C` [Total Progesterone]: in “clinical” (po), the AUClast came out at 6.47 ng·h/mL and the Tmax turned out to be 2.00 h.

In the case of `CC(=O)[C@H]1CC[C@H]2[C@@H]3CCC4=CC(=O)CC[C@]4(C)[C@H]3CC[C@]12C` [progesterone], the “half life in the circulation” value in data set [2] was “only a few minutes”.

The record behind these values is patent US20100304426A1, “Analytical Methods for Measuring Synthetic Progesterone” (priority 2009, published 2010).
